Source: ChEMBL document CHEMBL1143953, “Novel 2-phenylquinolin-7-yl-derived imidazo[1,5-a]pyrazines as potent insulin-like growth factor-I receptor (IGF-IR) inhibitors” (Bioorg Med Chem, 2008)
Each block holds one compound with its values, some of them ahead of it.

Tests used:
[1] = Oral bioavailability in Beagle dog at 5 mg/kg; assay type: ADME, organism-based, Canis lupus familiaris; conditions: in vivo
[2] = target: Inhibitor of nuclear factor kappa-B kinase subunit beta (Homo sapiens, UniProt O14920); assay: Inhibition of IKK-beta
[3] = Clearance in Sprague-Dawley rat at 1 mg/kg, iv; assay type: ADME, organism-based; set-up: dose 1 mg/kg, route intravenous; conditions: in vivo
[4] = Volume of distribution at steady state in Beagle dog at 2.5 mg/kg, iv; assay type: ADME, organism-based, Canis lupus familiaris; set-up: dose 2.5 mg/kg, route intravenous; conditions: in vivo, read-out: Vdss
[5] = Cmax in CD1 mouse at 25 mg/kg, po; assay type: ADME, organism-based; set-up: dose 25 mg/kg, route oral; conditions: in vivo
NIH3T3 [6] = assay: Antitumor activity in IGFR expressing mouse 3T3 cells xenografted nu/nu CD1 mouse at 25 mg/kg, po administered once daily for 14 days; assay type: functional; conditions: CD1, NIH3T3, 336 h, read-out: TGI
[7] = target: Ribosomal protein S6 kinase beta-1 (Homo sapiens, UniProt P23443); assay: Inhibition of P70S6K
[8] = target: RAF proto-oncogene serine/threonine-protein kinase (Homo sapiens, UniProt P04049); assay: Inhibition of cRaf
[9] = Cmax in Sprague-Dawley rat at 50 mg/kg, po; assay type: ADME, organism-based; set-up: dose 50 mg/kg, route oral; conditions: in vivo
Mus musculus [10] = assay: Effect on plasma insulin level in CD1 mouse at 25 mg/kg, po after 4 hrs; assay type: functional
NCI-H358 [11] = assay: Inhibition of proliferation of human H358 cells; assay type: functional, cell-based
[12] = target: T1, Insulin-like growth factor 1 receptor (Homo sapiens, UniProt P08069); assay: Inhibition of human recombinant full length IGF1R
T1 sequence (P08069 31-736 limits assumed): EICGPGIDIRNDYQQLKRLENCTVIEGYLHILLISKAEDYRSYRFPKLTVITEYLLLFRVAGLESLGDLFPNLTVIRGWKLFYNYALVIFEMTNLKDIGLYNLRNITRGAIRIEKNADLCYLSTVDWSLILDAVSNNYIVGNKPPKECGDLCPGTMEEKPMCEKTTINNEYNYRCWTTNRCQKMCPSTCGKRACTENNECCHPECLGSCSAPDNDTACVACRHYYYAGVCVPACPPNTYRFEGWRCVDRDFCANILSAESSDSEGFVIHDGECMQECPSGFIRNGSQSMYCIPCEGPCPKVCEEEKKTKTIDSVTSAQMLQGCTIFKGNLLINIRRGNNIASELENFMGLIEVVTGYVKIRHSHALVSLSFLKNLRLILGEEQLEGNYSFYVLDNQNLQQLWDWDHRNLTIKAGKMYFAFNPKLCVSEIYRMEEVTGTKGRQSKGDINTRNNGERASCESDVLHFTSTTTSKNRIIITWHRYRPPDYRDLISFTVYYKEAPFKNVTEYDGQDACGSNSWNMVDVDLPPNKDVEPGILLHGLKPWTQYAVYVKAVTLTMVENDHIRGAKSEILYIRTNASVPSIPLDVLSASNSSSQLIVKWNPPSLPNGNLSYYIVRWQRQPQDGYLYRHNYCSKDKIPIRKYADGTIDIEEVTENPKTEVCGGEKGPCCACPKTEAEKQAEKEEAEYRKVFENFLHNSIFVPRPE
T1 sequence (P08069 741-1367 limits assumed): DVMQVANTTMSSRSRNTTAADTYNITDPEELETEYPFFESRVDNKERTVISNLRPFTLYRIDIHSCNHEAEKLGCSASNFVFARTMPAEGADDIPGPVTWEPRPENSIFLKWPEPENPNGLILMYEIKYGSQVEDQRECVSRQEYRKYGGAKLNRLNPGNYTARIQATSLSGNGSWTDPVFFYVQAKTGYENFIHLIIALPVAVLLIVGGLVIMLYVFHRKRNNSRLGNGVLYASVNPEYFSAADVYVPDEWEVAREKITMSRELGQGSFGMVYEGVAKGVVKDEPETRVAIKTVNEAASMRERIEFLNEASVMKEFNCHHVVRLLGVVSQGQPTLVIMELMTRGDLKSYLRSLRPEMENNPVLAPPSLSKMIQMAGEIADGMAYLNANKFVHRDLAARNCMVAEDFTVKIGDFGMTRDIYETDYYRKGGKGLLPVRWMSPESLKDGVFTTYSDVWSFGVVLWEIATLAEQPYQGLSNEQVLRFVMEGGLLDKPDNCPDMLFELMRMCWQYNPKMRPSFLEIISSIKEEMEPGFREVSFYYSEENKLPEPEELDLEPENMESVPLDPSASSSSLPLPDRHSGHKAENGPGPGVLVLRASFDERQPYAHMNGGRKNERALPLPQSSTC

COLO 205 [13] = assay: Inhibition of proliferation of human Colo205 cells; assay type: functional, cell-based
NIH3T3 [14] = assay: Inhibition of IGF1-induced proliferation of human IGF1R expressing mouse 3T3 cells; assay type: functional, cell-based
[15] = Inhibition of proliferation of human GEO cells; assay type: functional, cell-based
[16] = Plasma concentration in Sprague-Dawley rat at 50 mg/kg, po after 24 hrs; assay type: ADME, organism-based; set-up: dose 50 mg/kg, route oral
[17] = target: Tyrosine-protein kinase Fyn (Homo sapiens, UniProt P06241); assay: Inhibition of FYN
[18] = target: Mitogen-activated protein kinase 10 (Homo sapiens, UniProt P53779); assay: Inhibition of JNK3
Sequence of Mitogen-activated protein kinase 10 (P53779 whole entry): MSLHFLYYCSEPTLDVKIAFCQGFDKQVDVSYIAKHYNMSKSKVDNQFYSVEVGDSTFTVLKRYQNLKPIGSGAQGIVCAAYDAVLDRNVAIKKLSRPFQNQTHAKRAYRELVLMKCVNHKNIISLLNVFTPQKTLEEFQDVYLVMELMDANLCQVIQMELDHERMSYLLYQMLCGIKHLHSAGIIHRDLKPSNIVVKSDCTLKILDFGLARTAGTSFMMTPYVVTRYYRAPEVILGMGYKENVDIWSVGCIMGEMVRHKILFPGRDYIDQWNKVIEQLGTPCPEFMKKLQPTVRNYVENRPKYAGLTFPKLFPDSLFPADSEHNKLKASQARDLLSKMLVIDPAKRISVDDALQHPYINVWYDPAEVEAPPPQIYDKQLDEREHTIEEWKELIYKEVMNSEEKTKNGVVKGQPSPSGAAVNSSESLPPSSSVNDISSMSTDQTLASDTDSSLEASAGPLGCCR

[19] = Inhibition of PKA
[20] = Plasma concentration in Beagle dog at 5 mg/kg, po after 24 hrs; assay type: ADME, organism-based, Canis lupus familiaris; set-up: dose 5 mg/kg, route oral
[21] = Volume of distribution at steady state in CD1 mouse at 5 mg/kg, iv; assay type: ADME, organism-based; set-up: dose 5 mg/kg, route intravenous; conditions: in vivo, read-out: Vdss
[22] = target: Tyrosine-protein kinase Fes/Fps (Homo sapiens, UniProt P07332); assay: Inhibition of FES
[23] = target: Protein kinase C alpha type (Homo sapiens, UniProt P17252); assay: Inhibition of PKCalpha
Mus musculus [24] = assay: Effect on blood glucose level in CD1 mouse at 25 mg/kg, po for 14 days; assay type: functional
[25] = AUC (0 to infinity) in CD1 mouse at 25 mg/kg, po; assay type: ADME, organism-based; set-up: time infinity, dose 25 mg/kg, route oral; conditions: plasma
Mus musculus [26] = assay: Increase in blood glucose level in CD1 mouse at 50 mg/kg, po for 14 days; assay type: functional
[27] = AUC (0 to infinity) in Beagle dog at 5 mg/kg, po; assay type: ADME, organism-based, Canis lupus familiaris; set-up: time infinity, dose 5 mg/kg, route oral; conditions: plasma
[28] = Half life in Beagle dog at 2.5 mg/kg, iv; assay type: ADME, organism-based, Canis lupus familiaris; set-up: dose 2.5 mg/kg, route intravenous; conditions: in vivo
HT-29 [29] = assay: Induction of DNA fragmentation in human HT29 cells at 10 uM relative to control; assay type: functional
[30] = Inhibition of CDK2/cyclin E
[31] = Clearance in Beagle dog at 2.5 mg/kg, iv; assay type: ADME, organism-based, Canis lupus familiaris; set-up: dose 2.5 mg/kg, route intravenous; conditions: in vivo
[32] = Plasma concentration in CD1 mouse at 25 mg/kg, po after 24 hrs; assay type: ADME, organism-based; set-up: dose 25 mg/kg, route oral
Focal adhesion kinase 1 = Focal adhesion kinase 1 (Homo sapiens, UniProt Q05397); assay: Inhibition of FAK
[33] = target: Fibroblast growth factor receptor 3 (Homo sapiens, UniProt P22607); assay: Inhibition of FGFR3
HT-29 [34] = assay: Inhibition of proliferation of human HT29 cells; assay type: functional, cell-based
Mus musculus [35] = assay: Effect on plasma insulin level in CD1 mouse at 50 mg/kg, po after 4 hrs; assay type: functional
Mus musculus [36] = assay: Effect on plasma insulin level in CD1 mouse at 100 mg/kg, po after 4 hrs; assay type: functional
NIH3T3 [37] = assay: Antiproliferative activity against human IGF1R expressing mouse 3T3 cells; assay type: functional, cell-based
[38] = Inhibition of proliferation of human H292 cells; assay type: functional, cell-based; conditions: NCI-H292
[39] = Volume of distribution at steady state in Sprague-Dawley rat at 1 mg/kg, iv; assay type: ADME, organism-based; set-up: dose 1 mg/kg, route intravenous; conditions: in vivo, read-out: Vdss
[40] = AUC (0 to infinity) in Sprague-Dawley rat at 50 mg/kg, po; assay type: ADME, organism-based; set-up: dose 50 mg/kg, route oral, time infinity; conditions: plasma
[41] = Induction of DNA fragmentation in human H292 cells at 10 uM relative to control; assay type: functional
NIH3T3 [42] = assay: Inhibition of IGF1-stimulated purified ERK1 phosphorylation in mouse 3T3 cells; assay type: functional, cell-based
NIH3T3 [43] = assay: Antitumor activity in IGFR expressing mouse 3T3 cells xenografted nu/nu CD1 mouse at 75 mg/kg, po administered once daily for 14 days; assay type: functional; conditions: CD1, NIH3T3, 336 h, read-out: TGI
[44] = Cmax in Beagle dog at 5 mg/kg, po; assay type: ADME, organism-based, Canis lupus familiaris; set-up: dose 5 mg/kg, route oral; conditions: in vivo
NIH3T3 [45] = assay: Inhibition of IGF1-stimulated p70S6K phosphorylation in mouse 3T3 cells; assay type: functional, cell-based
[46] = Inhibition of RON at 100 uM
[47] = Induction of DNA fragmentation in human Colo699 cells at 10 uM relative to control; assay type: functional
[48] = target: Mitogen-activated protein kinase 1 (Mus musculus) (UniProt P63085); assay: Inhibition of IGF1-stimulated purified ERK2 phosphorylation in mouse 3T3 cells; assay type: cell-based; conditions: NIH3T3
Sequence of Mitogen-activated protein kinase 1 (Mus musculus) (P63085 whole entry): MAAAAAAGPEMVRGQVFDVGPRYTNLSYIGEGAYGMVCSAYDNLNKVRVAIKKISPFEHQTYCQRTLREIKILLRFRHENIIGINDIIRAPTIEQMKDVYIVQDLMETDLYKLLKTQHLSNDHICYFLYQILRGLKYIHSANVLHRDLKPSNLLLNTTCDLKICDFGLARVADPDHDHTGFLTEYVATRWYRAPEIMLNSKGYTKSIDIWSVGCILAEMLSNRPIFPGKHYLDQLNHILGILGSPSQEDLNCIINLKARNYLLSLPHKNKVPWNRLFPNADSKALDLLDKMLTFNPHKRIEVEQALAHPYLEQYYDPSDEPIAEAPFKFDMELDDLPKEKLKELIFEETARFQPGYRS

[49] = target: Casein kinase II subunit alpha (Homo sapiens, UniProt P68400); assay: Inhibition of CK2
[50] = Half life in Sprague-Dawley rat at 1 mg/kg, iv; assay type: ADME, organism-based; set-up: dose 1 mg/kg, route intravenous; conditions: in vivo
[51] = Half life in CD1 mouse at 5 mg/kg, iv; assay type: ADME, organism-based; set-up: dose 5 mg/kg, route intravenous; conditions: in vivo
NIH3T3 [52] = assay: Inhibition of IGF1-stimulated purified AKT phosphorylation in mouse 3T3 cells; assay type: functional, cell-based
COLO 205 [53] = assay: Induction of DNA fragmentation in human Colo205 cells at 10 uM relative to control; assay type: functional
[54] = target: Vascular endothelial growth factor receptor 2 (Homo sapiens, UniProt P35968); assay: Inhibition of KDR at 100 uM
Sequence of Vascular endothelial growth factor receptor 2 (P35968 whole entry): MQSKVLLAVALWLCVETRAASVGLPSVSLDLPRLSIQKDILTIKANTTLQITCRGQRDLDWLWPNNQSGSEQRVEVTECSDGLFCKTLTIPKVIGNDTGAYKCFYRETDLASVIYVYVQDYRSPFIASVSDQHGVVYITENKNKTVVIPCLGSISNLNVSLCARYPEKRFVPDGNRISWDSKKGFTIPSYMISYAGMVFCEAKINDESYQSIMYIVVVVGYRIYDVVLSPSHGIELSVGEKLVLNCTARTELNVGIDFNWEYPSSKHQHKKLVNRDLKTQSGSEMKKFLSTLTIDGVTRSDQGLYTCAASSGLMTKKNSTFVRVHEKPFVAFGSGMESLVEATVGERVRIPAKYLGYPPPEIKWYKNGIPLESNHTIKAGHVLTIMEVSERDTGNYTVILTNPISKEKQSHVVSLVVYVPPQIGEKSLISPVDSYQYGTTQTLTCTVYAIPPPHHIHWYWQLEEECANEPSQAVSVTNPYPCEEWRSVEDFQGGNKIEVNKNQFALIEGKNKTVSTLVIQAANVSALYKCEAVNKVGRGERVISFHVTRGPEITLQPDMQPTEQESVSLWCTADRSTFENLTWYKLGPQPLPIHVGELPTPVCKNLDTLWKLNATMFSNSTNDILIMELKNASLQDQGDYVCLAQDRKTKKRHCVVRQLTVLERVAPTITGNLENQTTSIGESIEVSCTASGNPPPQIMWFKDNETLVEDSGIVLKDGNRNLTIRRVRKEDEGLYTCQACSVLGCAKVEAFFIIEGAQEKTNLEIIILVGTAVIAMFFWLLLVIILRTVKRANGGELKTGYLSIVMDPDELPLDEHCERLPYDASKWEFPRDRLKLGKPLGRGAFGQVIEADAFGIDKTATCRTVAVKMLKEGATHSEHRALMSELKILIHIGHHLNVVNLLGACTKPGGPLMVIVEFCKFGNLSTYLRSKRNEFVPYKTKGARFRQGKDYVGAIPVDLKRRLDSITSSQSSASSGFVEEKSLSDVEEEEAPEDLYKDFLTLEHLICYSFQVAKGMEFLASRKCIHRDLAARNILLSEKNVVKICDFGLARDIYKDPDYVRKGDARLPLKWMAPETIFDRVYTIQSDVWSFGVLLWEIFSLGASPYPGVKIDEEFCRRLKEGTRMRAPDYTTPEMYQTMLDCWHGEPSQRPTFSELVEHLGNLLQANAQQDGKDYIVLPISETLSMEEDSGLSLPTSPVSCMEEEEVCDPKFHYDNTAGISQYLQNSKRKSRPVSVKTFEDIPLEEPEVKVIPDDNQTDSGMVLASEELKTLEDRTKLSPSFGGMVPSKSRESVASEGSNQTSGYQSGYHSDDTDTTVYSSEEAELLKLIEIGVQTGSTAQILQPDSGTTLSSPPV

[55] = Oral bioavailability in CD1 mouse at 25 mg/kg; assay type: ADME, organism-based; conditions: in vivo
[56] = target: T1, Insulin-like growth factor 1 receptor
Description: Inhibition of human recombinant full length IGF1R expressed in mouse 3T3 cells

[57] = target: Receptor-type tyrosine-protein kinase FLT3 (Homo sapiens, UniProt P36888); assay: Inhibition of FLT3
[58] = Clearance in CD1 mouse at 5 mg/kg, iv; assay type: ADME, organism-based; set-up: dose 5 mg/kg, route intravenous; conditions: in vivo
[59] = target: Rho-associated protein kinase 2 (Homo sapiens, UniProt O75116); assay: Inhibition of Rock2
[60] = Induction of DNA fragmentation in human GEO cells at 10 uM relative to control; assay type: functional
[61] = target: Tyrosine-protein kinase ABL1 (Homo sapiens, UniProt P00519); assay: Inhibition of Abl
NCI-H358 [62] = assay: Induction of DNA fragmentation in human H358 cells at 10 uM relative to control; assay type: functional
[63] = target: Dual specificity mitogen-activated protein kinase kinase 1 (Homo sapiens, UniProt Q02750); assay: Inhibition of MEK1
Mus musculus [64] = assay: Increase in glucose level in CD1 mouse at 100 mg/kg, po 2 hrs after glucose challenge; assay type: functional
Mus musculus [65] = assay: Increase in blood glucose level in CD1 mouse at 100 mg/kg, po for 14 days; assay type: functional
Insulin receptor = Insulin receptor (Homo sapiens, UniProt P06213); assay: Inhibition of human purified insulin receptor in biochemical assay at 100 uM ATP
[66] = Inhibition of proliferation of human Colo699 cells; assay type: functional; conditions: COLO 699
[67] = target: Proto-oncogene tyrosine-protein kinase Src (Homo sapiens, UniProt P12931); assay: Inhibition of SRC
Aurora kinase A = Aurora kinase A (Homo sapiens, UniProt O14965); assay: Inhibition of AuroraA
[68] = Inhibition of CDK2/cyclin A
[69] = Oral bioavailability in Sprague-Dawley rat at 50 mg/kg; assay type: ADME, organism-based; conditions: in vivo
[70] = target: RAC-alpha serine/threonine-protein kinase (Homo sapiens, UniProt P31749); assay: Inhibition of AKT1
[71] = target: Platelet-derived growth factor receptor beta (Homo sapiens, UniProt P09619); assay: Inhibition of PDGFRbeta
[72] = Inhibition of CDK1/cyclin B
Cytochrome P450 3A4 = Cytochrome P450 3A4 (Homo sapiens, UniProt P08684); assay: Inhibition of CYP3A4; assay type: ADME
Sequence of Cytochrome P450 3A4 (P08684 whole entry): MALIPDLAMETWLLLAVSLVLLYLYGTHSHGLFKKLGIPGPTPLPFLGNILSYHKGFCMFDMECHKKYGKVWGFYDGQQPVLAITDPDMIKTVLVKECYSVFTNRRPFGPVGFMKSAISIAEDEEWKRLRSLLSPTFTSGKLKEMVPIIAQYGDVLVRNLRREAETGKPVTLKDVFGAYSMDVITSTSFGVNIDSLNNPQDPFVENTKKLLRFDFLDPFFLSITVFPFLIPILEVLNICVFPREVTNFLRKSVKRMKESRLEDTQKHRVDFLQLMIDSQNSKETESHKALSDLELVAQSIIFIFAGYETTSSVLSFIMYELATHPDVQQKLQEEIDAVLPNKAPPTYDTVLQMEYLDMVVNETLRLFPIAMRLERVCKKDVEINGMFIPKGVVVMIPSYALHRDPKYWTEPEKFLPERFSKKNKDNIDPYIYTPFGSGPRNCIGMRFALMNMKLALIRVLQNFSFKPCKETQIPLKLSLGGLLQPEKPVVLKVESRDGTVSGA

bioavailability [1]: 94% | IC50 [2]: > 10 µM | clearance [3]: 10 mL/min/kg | Vd [4]: 50 L/kg | Cmax [5]: 3400 nM | IC50 [7]: > 10 µM | IC50 [8]: > 10 µM | Cmax [9]: 1600 nM | IC50 (NCI-H358 [11]): 2.98 µM | IC50 [12]: 0.035 µM | IC50 (COLO 205 [13]): 0.93 µM | concentration at 24 h [16]: 900 nM | IC50 [17]: > 10 µM | IC50 [18]: > 10 µM | IC50 [19]: > 10 µM | concentration at 24 h [20]: 90 nM | Vd [21]: 10 L/kg | IC50 [22]: > 10 µM | IC50 [23]: > 10 µM | AUC(0-inf) [25]: 25600 ng·h/mL | AUC(0-inf) [27]: 3010 ng·h/mL | half-life [28]: 19 h | IC50 [30]: > 10 µM | clearance [31]: 30 mL/min/kg | concentration at 24 h [32]: 400 nM | IC50 (Focal adhesion kinase 1): > 10 µM | IC50 [33]: > 10 µM | IC50 (HT-29 [34]): 1.26 µM | Vd [39]: 14 L/kg | AUC(0-inf) [40]: 37400 ng·h/mL | Cmax [44]: 170 nM | IC50 [46]: 5.9 µM | Activity [48]: Dose-dependent effect | IC50 [49]: > 10 µM | half-life [50]: 19.9 h | half-life [51]: 5.1 h | IC50 [54]: 4.3 µM | bioavailability [55]: 100% | IC50 [56]: 0.02 µM | IC50 [57]: > 10 µM | clearance [58]: 24 mL/min/kg | IC50 [59]: > 5 µM | IC50 [61]: > 10 µM | IC50 [63]: > 10 µM | IC50 (Insulin receptor): 0.076 µM | IC50 [67]: > 10 µM | IC50 (Aurora kinase A): > 10 µM | IC50 [68]: > 10 µM | bioavailability [69]: 38% | IC50 [70]: > 10 µM | IC50 [71]: > 10 µM | IC50 [72]: > 10 µM | IC50 (Cytochrome P450 3A4): > 20 µM
Compound: Nc1nccn2c1c(-c1ccc3ccc(-c4ccccc4)nc3c1)nc2[C@H]1C[C@@H](CN2CCC2)C1
inhibition in vivo at 25 mg/kg (NIH3T3 [6]): 92% | Activity (Mus musculus [10]): 13.1 ng/mL | IC50 (NIH3T3 [14]): 0.05 µM | IC50 [15]: 0.27 µM | Activity (Mus musculus [24]): -2.9% | Activity (Mus musculus [26]): 18% | Activity (HT-29 [29]): 46 | Activity (Mus musculus [35]): 14.7 ng/mL | Activity (Mus musculus [36]): 27 ng/mL | IC50 (NIH3T3 [37]): 0.05 µM | IC50 [38]: 1.95 µM | Activity [41]: 51 | Activity (NIH3T3 [42]): Dose-dependent effect | inhibition in vivo at 75 mg/kg (NIH3T3 [43]): > 100% | Activity (NIH3T3 [45]): Dose-dependent effect | Activity [47]: 16 | Activity (NIH3T3 [52]): Dose-dependent effect | Activity (COLO 205 [53]): 0.8 | Activity [60]: 4 | Activity (NCI-H358 [62]): 2.7 | Activity (Mus musculus [64]): 44% | Activity (Mus musculus [65]): 75% | IC50 [66]: 0.69 µM

IC50 (Cytochrome P450 3A4): 19 µM
Compound: CN(C)[C@H]1C[C@@H](c2nc(-c3ccc4ccc(-c5ccccc5)nc4c3)c3c(N)nccn32)C1
